Assay [1] addresses T1, gluthathione reductase (GR) (Homo sapiens, UniProt P00390).
T1 sequence (P00390 44-522): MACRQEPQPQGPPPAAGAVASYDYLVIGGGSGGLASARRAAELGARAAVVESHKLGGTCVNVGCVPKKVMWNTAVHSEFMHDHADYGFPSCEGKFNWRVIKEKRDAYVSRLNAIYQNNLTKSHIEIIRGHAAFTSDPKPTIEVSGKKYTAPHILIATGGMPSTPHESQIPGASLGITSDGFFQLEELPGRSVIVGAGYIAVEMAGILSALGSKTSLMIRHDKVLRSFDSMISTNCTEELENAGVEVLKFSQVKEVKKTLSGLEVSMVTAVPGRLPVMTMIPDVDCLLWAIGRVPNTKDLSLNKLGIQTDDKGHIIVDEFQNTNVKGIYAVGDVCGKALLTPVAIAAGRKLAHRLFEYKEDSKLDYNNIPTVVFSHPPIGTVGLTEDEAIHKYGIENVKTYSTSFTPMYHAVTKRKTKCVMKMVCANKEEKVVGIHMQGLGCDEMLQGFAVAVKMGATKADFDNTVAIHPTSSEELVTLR
Nature of the assay: Inhibition of recombinant GR (GSSG assay). It counts as biochemical. The essentials: (§1)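 Human TrxR1 (15 nM) or GR (2 nM) preincubated 15 min with compound, 250 μM NADPH, 0.1 mg/ml BSA in 50 mM Tris pH 7.5, 2 mM EDTA, 1% DMSO. Reaction started with 2.5 mM DTNB (TrxR1, A412) or 1 mM GSSG (GR, A340). Percent activity relative to DMSO and no-enzyme blanks.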

In assay [2] the target is T2, recombinant thioredoxin reductase 1 (TrxR1) (Homo sapiens, UniProt Q16881).
T2 sequence (Q16881 1-649): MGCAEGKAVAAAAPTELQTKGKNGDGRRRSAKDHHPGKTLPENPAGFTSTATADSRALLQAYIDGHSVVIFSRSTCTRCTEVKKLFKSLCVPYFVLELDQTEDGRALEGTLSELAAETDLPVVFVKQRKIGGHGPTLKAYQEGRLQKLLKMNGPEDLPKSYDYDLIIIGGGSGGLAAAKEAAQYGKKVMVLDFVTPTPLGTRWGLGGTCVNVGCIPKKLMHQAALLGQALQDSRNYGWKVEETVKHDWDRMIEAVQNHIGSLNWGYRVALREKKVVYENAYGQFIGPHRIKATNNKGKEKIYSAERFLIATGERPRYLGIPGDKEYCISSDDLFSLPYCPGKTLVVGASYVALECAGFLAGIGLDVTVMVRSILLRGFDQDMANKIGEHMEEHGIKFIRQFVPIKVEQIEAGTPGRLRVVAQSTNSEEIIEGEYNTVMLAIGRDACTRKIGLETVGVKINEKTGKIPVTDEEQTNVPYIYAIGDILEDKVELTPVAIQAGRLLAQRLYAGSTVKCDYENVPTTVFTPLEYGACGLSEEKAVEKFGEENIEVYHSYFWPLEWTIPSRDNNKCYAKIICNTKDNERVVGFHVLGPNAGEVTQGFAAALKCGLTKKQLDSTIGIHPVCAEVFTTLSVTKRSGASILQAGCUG
The assay is described as follows: Inhibition of recombinant TrxR1 (DTNB assay). It counts as biochemical. The procedure, abridged: as §1

Where [3] appears, read: Biological Example 4, assays of Biological Example 1.
[4] abbreviates: Biological Example 4, assays of Biological Example 1, read-out: TrxR Inhibition.

Each structure is given as a SMILES string. Counter-ions that a name gives are not always drawn. Like-named read-outs stand apart in the source and are kept apart here.

On to `N#Cc1cccc(CN2C3C=CC(=O)C2C2C(=O)N(c4ccccc4)C(=O)C23)c1` (stereo not drawn) [Example 36, 3-((4-Phenyl-3,5,10-trioxo-4,11-diazatricyclo[5.3.1.0^2,6]undec-8-en-11-yl)-methyl)benzonitrile Trifluoroacetate], for which the IC50 in assay [1] (setting [3]) amounted to 68.5 µM; in assay [2] (setting [4]), 1.47 µM.
For `Cc1cc(CN2C3C=CC(=O)C2C2C(=O)N(c4ccccc4)C(=O)C23)ccc1F` (stereo not drawn) [Example 37, exo-11-(4-Fluoro-3-methylbenzyl)-4-phenyl-4,11-diazatricyclo[5.3.1.0^2,6]-undec-9-ene-3,5,8-trione Trifluoroacetate] the same measures were greater than 100 µM and 0.93 µM.
On the same counts, the results for `Cc1ccc(F)c(CN2C3C=CC(=O)C2C2C(=O)N(c4ccccc4)C(=O)C23)c1F` (stereo not drawn) [Example 38, endo-11-(2,6-Difluoro-3-methylbenzyl)-4-phenyl-4,11-diazatricyclo-[5.3.1.0^2,6]undec-9-ene-3,5,8-trione Trifluoroacetate] are 12.3 µM and 1.36 µM.
For `Cc1ccc(F)c(CN2C3C=CC(=O)C2C2C(=O)N(c4ccccc4)C(=O)C23)c1F` (stereo not drawn) [Example 39, exo-11-(2,6-Difluoro-3-methylbenzyl)-4-phenyl-4,11-diazatricyclo[5.3.1.0^2,6]-undec-9-ene-3,5,8-trione Trifluoroacetate] the same measures were greater than 100 µM and 1.29 µM.
`O=C1C=CC2C3C(=O)N(c4ccccc4)C(=O)C3C1N2Cc1cc(Cl)ccc1F` (stereo not drawn) [Example 40, exo-11-(5-Chloro-2-fluorobenzyl)-4-phenyl-4,11-diazatricyclo[5.3.1.0^2,6]-undec-9-ene-3,5,8-trione Trifluoroacetate]: the IC50 in assay [1] (setting [3]) worked out at 31.6 µM; in assay [2] (setting [4]) it was 0.77 µM.
In the case of `O=C1C=CC2C3C(=O)N(c4ccccc4)C(=O)C3C1N2Cc1cccc(Cl)c1` (stereo not drawn) [Example 41, endo-11-(3-Chlorobenzyl)-4-phenyl-4,11-diazatricyclo[5.3.1.0^2,6]undec-9-ene-3,5,8-trione Trifluoroacetate], the IC50 stood at 49.5 µM in assay [1] (setting [3]) and 2.35 µM in assay [2] (setting [4]).
On the same counts, the results for `O=C1C=CC2C3C(=O)N(c4ccccc4)C(=O)C3C1N2Cc1cccc(Cl)c1` (stereo not drawn) [Example 42, exo-11-(3-Chlorobenzyl)-4-phenyl-4,11-diazatricyclo[5.3.1.0^2,6]undec-9-ene-3,5,8-trione Trifluoroacetate] are 76.4 µM and 0.76 µM.
For `O=C1C=CC2C3C(=O)N(c4ccccc4)C(=O)C3C1N2Cc1cc(F)cc(F)c1` (stereo not drawn) [Example 43, 11-(3,5-Difluorobenzyl)-4-phenyl-4,11-diazatricyclo[5.3.1.0^2,6]undec-9-ene-3,5,8-trione Trifluoroacetate], the IC50 in assay [1] (setting [3]) stood at 91.7 µM; in assay [2] (setting [4]), 1.59 µM.
For `Cc1cccc(CN2[C@@H]3C(=O)C=C[C@H]2C2C(=O)N(C)C(=O)C23)c1` (stereo partly drawn) [Example 52] the same measures were greater than 100 µM and 1.81 µM.
On the same counts, the results for `CN1C(=O)C2C(C1=O)C1C(=O)C=CC2N1C` (stereo not drawn) [Example 60, exo-4,11-Dimethyl-4,11-diazatricyclo[5.3.1.0^2,6]undec-9-ene-3,5,8-trione Trifluoroacetate] are greater than 100 µM and 15.4 µM.
Take `Cc1cccc(CN2[C@@H]3C(=O)C=C[C@H]2C2C(=O)N(c4cccc(N5CCOCC5)c4)C(=O)C23)c1` (stereo partly drawn) [Example 69, endo-11-(3-Methylbenzyl)-4-(3-(4-morpholino)phenyl)-4,11-diazatricyclo-[5.3.1.0^2,6]undec-9-ene-3,5,8-trione Trifluoroacetate]: the IC50 was greater than 100 µM in assay [1] (Biological Example 1, 2 nM GR, 250 μM NADPH, 15 minutes incubation); greater than 100 µM in assay [1] (setting [3]); 7.4 µM in assay [2] (Biological Example 1, 15 nM TrxR1, 250 μM NADPH, 15 minutes incubation, read-out: TrxR inhibition); 4.15 µM in assay [2] (setting [4]).

For the origin of these results see patent US10881653B2, “Tricyclic compounds and their use in the treatment of cancer” (The United States of America, as represented by the …, priority 2015, dated 2021).
